In patent US11051515B2, “3-acyl-benzamides and their use as herbicides” (Bayer Aktiengesellschaft, priority 2017, dated 2021):

What was measured:
AMARE [1] = test: Pre-emergence action against AMARE; assay type: in vivo, Amaranthus retroflexus; details: pre-emergence, dosage 320 g/ha, scored visually after 3 weeks vs untreated controls; for pest or weed control at 320 g/ha: Amaranthus retroflexus, 504 h, read-out: Pre-emergence action against AMARE (herbicidal activity)
Procedure, shortened: (§1)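 Seeds sown in sandy loam in wood-fiber pots and covered with soil. Greenhouse growth; visual damage scored after 3 weeks versus untreated controls (100% = dead, 0% = like control).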

VIOTR [2] = test: Pre-emergence action against VIOTR; assay type: in vivo, Viola tricolor; details: Dosage 320 g/ha, pre-emergence; for pest or weed control at 320 g/ha: Viola tricolor, 504 h
Procedure, shortened: as §1

AMARE [3] = test: Post-emergence action against AMARE; assay type: in vivo, Amaranthus retroflexus; details: post-emergence, dosage 80 g/ha, visual assessment about 3 weeks after treatment vs untreated controls; for pest or weed control at 80 g/ha: Amaranthus retroflexus, 504 h, read-out: Post-emergence action against AMARE (herbicidal action in percent)
Procedure, shortened: (§2)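 Weeds grown in sandy loam in greenhouse, treated at one-leaf stage (2–3 weeks after sowing) with WP or EC formulations sprayed as aqueous suspension/emulsion at 600 to […] water with 0.2% wetting agent. Visual rating after about 3 weeks versus untreated controls, as % herbicidal action (100% = plants dead, 0% = like control).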

DIGSA = test: Pre-emergence action against DIGSA; assay type: in vivo, Digitaria sanguinalis; details: dosage 320 g/ha, scored visually after 3 weeks vs untreated controls
Source text: (§3) Seeds of monocotyledonous and dicotyledonous weed plants and crop plants are laid out in sandy loam soil in wood-fiber pots and covered with soil. The compounds of the invention, formulated in the form of wettable powders (WP) or as emulsion concentrates (EC), are then applied to the surface of the covering soil in the form of an aqueous suspension or emulsion at a water application rate equating to […], with addition of 0.2% wetting agent. After the treatment, the pots are placed in a greenhouse and kept under good growth conditions for the trial plants. The damage to the test plants is scored visually after a test period of 3 weeks by comparison with untreated controls (herbicidal activity in percent (%): 100% activity=the plants have died, 0% activity=like control plants).

STEME [4] = test: Pre-emergence action against STEME; assay type: in vivo, Stellaria media; details: Dosage 320 g/ha, pre-emergence; for pest or weed control at 320 g/ha: Stellaria media, 504 h
Procedure, shortened: as §1

ABUTH [5] = test: Pre-emergence action against ABUTH; assay type: in vivo, Abutilon theophrasti; details: pre-emergence, dosage 320 g/ha, scored visually after 3 weeks vs untreated controls; for pest or weed control at 320 g/ha: Abutilon theophrasti, 504 h, read-out: Pre-emergence action against ABUTH (herbicidal activity)
Procedure, shortened: as §1

ECHCG [6] = test: Pre-emergence action against ECHCG; assay type: in vivo, Echinochloa crus-galli; details: pre-emergence, dosage 320 g/ha, scored visually after 3 weeks vs untreated controls; for pest or weed control at 320 g/ha: Echinochloa crus-galli, 504 h, read-out: Pre-emergence action against ECHCG (herbicidal activity)
Procedure, shortened: as §1

VERPE [7] = test: Pre-emergence action against VERPE; assay type: in vivo, Veronica persica; details: Dosage 320 g/ha, pre-emergence; for pest or weed control at 320 g/ha: Veronica persica, 504 h
Procedure, shortened: as §1

MATIN [8] = test: Pre-emergence action against MATIN; assay type: in vivo, Matricaria inodora; details: Dosage 320 g/ha, pre-emergence; for pest or weed control at 320 g/ha: Tripleurospermum inodorum, 504 h
Procedure, shortened: as §1

LOLRI = test: Pre-emergence action against LOLRI; assay type: in vivo, Lolium rigidum; details: Lolium rigidum, 504 h, dosage 320 g/ha, scored visually after 3 weeks vs untreated controls, read-out: Pre-emergence action against LOLRI (herbicidal activity)
Procedure, shortened: as §1

VERPE [9] = test: Post-emergence action against VERPE; assay type: in vivo, Veronica persica; details: Veronica persica, 504 h, dosage 80 g/ha
Procedure, shortened: as §2

ECHCG [10] = test: Post-emergence action against ECHCG; assay type: in vivo, Echinochloa crus-galli; details: Echinochloa crus-galli, 504 h; post-emergence, dosage 80 g/ha, visual assessment about 3 weeks after treatment vs untreated controls; read-out: Post-emergence action against ECHCG (herbicidal action in percent)
Procedure, shortened: as §2

SETVI [11] = test: Pre-emergence action against SETVI; assay type: in vivo, Setaria viridis; details: Setaria viridis, 504 h; pre-emergence, dosage 320 g/ha, scored visually after 3 weeks vs untreated controls; read-out: SETVI (Table B8, pre-emergence herbicidal activity)
Procedure, shortened: as §1

AVEFA = test: Pre-emergence action against AVEFA; assay type: in vivo, Avena fatua; details: Avena fatua, 504 h, dosage 320 g/ha, scored visually after 3 weeks vs untreated controls, read-out: Pre-emergence action against AVEFA (herbicidal activity)
Procedure, shortened: as §1

ALOMY [12] = test: Post-emergence action against ALOMY; assay type: in vivo, Alopecurus myosuroides; details: Alopecurus myosuroides, 504 h; Dosage 80 g/ha, post-emergence
Procedure, shortened: as §2

MATIN [13] = test: Post-emergence action against MATIN; assay type: in vivo, Matricaria inodora; details: Tripleurospermum inodorum, 504 h; post-emergence, dosage 80 g/ha, visual assessment about 3 weeks after treatment vs untreated controls; read-out: Post-emergence action against MATIN (herbicidal action in percent)
Procedure, shortened: as §2

POLCO [14] = test: Pre-emergence action against POLCO; assay type: in vivo, Polygonum convolvulus; details: Fallopia convolvulus, 504 h; Dosage 320 g/ha, pre-emergence
Procedure, shortened: as §1

SETVI [15] = test: Post-emergence action against SETVI; assay type: in vivo, Setaria viridis; details: Setaria viridis, 504 h; post-emergence, dosage 80 g/ha, visual assessment about 3 weeks after treatment vs untreated controls; read-out: Post-emergence action against SETVI (herbicidal action in percent)
Procedure, shortened: as §2

PHBPU [16] = test: Post-emergence action against PHBPU; assay type: in vivo, Pharbitis purpurea; details: Ipomoea purpurea, 504 h; post-emergence, dosage 80 g/ha
Procedure, shortened: as §2

PHBPU [17] = test: Pre-emergence action against PHBPU; assay type: in vivo, Pharbitis purpurea; details: Ipomoea purpurea, 504 h; Dosage 320 g/ha, pre-emergence
Procedure, shortened: as §1

ALOMY [18] = test: Pre-emergence action against ALOMY; assay type: in vivo, Alopecurus myosuroides; details: Alopecurus myosuroides, 504 h; dosage 320 g/ha; pre-emergence; scored visually after 3 weeks vs untreated controls; 100% = plants have died, 0% = like control plants; read-out: Pre-emergence action against ALOMY (herbicidal activity in percent)
Procedure, shortened: as §1

HORMU = test: Pre-emergence action against HORMU; assay type: in vivo, Hordeum murinum; details: Hordeum murinum, 504 h, Dosage 320 g/ha
Source text: as §3

ABUTH [19] = test: Post-emergence action against ABUTH; assay type: in vivo, Abutilon theophrasti; details: Abutilon theophrasti, 504 h; post-emergence, dosage 80 g/ha, visual assessment about 3 weeks after treatment vs untreated controls; read-out: Post-emergence action against ABUTH (herbicidal action in percent)
Procedure, shortened: as §2

STEME [20] = test: Post-emergence action against STEME; assay type: in vivo, Stellaria media; details: Stellaria media, 504 h; post-emergence, dosage 80 g/ha
Procedure, shortened: as §2

CYPES = test: Post-emergence action against CYPES; assay type: in vivo, Cyperus esculentus; details: Cyperus esculentus, 504 h; post-emergence, dosage 80 g/ha, visual assessment about 3 weeks after treatment vs untreated controls; read-out: Post-emergence action against CYPES (herbicidal action in percent)
Procedure, shortened: as §2

POLCO [21] = test: Post-emergence action against POLCO; assay type: in vivo, Polygonum convolvulus; details: Fallopia convolvulus, 504 h; post-emergence, dosage 80 g/ha
Procedure, shortened: as §2

VIOTR [22] = test: Post-emergence action against VIOTR; assay type: in vivo, Viola tricolor; details: Viola tricolor, 504 h; post-emergence, dosage 80 g/ha
Procedure, shortened: as §2

Structure (SMILES) | Pre-emergence action against AMARE (herbicidal activity) (AMARE [1]) | Pre-emergence action against VIOTR (VIOTR [2]) | Post-emergence action against AMARE (herbicidal action in percent) (AMARE [3]) | Pre-emergence action against DIGSA (herbicidal activity) (DIGSA) | Pre-emergence action against STEME (STEME [4]) | Pre-emergence action against ABUTH (herbicidal activity) (ABUTH [5]) | pest or weed control at 80 g/ha (VERPE [9]) | pest or weed control at 320 g/ha (AMARE [1]) | pest or weed control at 320 g/ha (SETVI [11]) | pest or weed control at 80 g/ha (MATIN [13]) | pest or weed control at 320 g/ha (POLCO [14]) | pest or weed control at 320 g/ha (VIOTR [2]) | pest or weed control at 80 g/ha (AMARE [3]) | pest or weed control at 80 g/ha (PHBPU [16]) | pest or weed control at 320 g/ha (PHBPU [17]) | pest or weed control at 320 g/ha (ECHCG [6]) | pest or weed control at 320 g/ha (ALOMY [18]) | pest or weed control at 80 g/ha (ABUTH [19]) | pest or weed control at 80 g/ha (STEME [20]) | pest or weed control at 320 g/ha (STEME [4]) | further results
CCCn1nnnc1NC(=O)c1ccc(C(F)(F)F)c(C(=O)C2CCCCC2)c1SC [3-281] | 80% | 100% | 80% | 80% | 90% | 100% | – | – | – | – | – | – | – | – | – | – | – | – | – | – | –
CCn1nnnc1NC(=O)c1ccc(C(F)(F)F)c(C(=O)C2CCCCC2)c1Cl [2-155] | 100% | 100% | 80% | 90% | 100% | 100% | – | – | – | – | – | – | – | – | – | – | – | – | – | – | Pre-emergence action against ECHCG (herbicidal activity) (ECHCG [6]): 80%; Pre-emergence action against VERPE (VERPE [7]): 80%; Pre-emergence action against MATIN (MATIN [8]): 100%
CSc1c(C(=O)Nc2nnnn2C)ccc(C(F)F)c1C(C)=O [1-65] | – | – | – | – | – | – | 100% | 100% | 100% | 100% | 100% | 100% | 100% | 100% | 100% | 100% | 100% | 100% | 100% | 100% | pest or weed control at 320 g/ha (LOLRI): 80%; pest or weed control at 80 g/ha (ECHCG [10]): 100%; pest or weed control at 320 g/ha (AVEFA): 100%; pest or weed control at 80 g/ha (ALOMY [12]): 80%; pest or weed control at 80 g/ha (SETVI [15]): 100%; pest or weed control at 320 g/ha (HORMU): 90%; pest or weed control at 80 g/ha (CYPES): 90%; pest or weed control at 320 g/ha (VERPE [7]): 100%; pest or weed control at 80 g/ha (POLCO [21]): 100%; pest or weed control at 320 g/ha (ABUTH [5]): 100%; pest or weed control at 320 g/ha (MATIN [8]): 100%; pest or weed control at 80 g/ha (VIOTR [22]): 100%
Cc1ccc(C(=O)Nc2nnnn2C)c(C)c1C(=O)C1CC1 [1-3] | – | – | – | 90% | – | – | 90% | 100% | 90% | 90% | 80% | 90% | 100% | 90% | 80% | 90% | 90% | 100% | 90% | 90% | pest or weed control at 320 g/ha (VERPE [7]): 90%; pest or weed control at 320 g/ha (ABUTH [5]): 90%; pest or weed control at 320 g/ha (MATIN [8]): 100%
